The compounds below were run against CDK-2 (Homo sapiens, UniProt P24941) (assay: CDK-2 inhibition (Table 1; fluorescence polarization displacement assay)). Details: inhibitory effectiveness toward CDK-2.
Format: binding
Method: The affinity of lead inhibitors binding to CDK-2 and CDK-2/cyclin A were determined by measuring a Ki value using a fluorescence polarization displacement assay. The deacetylated form of compound BMS-250595 was reacted with Alexa Fluor 647 to generate a compound (BMS-Alexa Fluor647) that bound to both proteins and provided a signal for fluorescence polarization displacement. Binding assays were performed in a 384 well Costar NBS coated plate. A total volume of […] contained concentrations of CDK-2 or CDK-2/cyclin A at […], respectively. The concentration of BMS-Alexa Fluor647 was 50 nM. Serial dilutions of compounds were added to 12 wells. The final buffer concentration was 10 mM Hepes, pH 7.5, 150 mM NaCl, and 1 mM DTT. Samples were incubated at room temperature for 15 minutes and then read in an Analyst HT instrument using an excitation and emission wavelength of 580 and 680 nm, respectively. The […] curve fitting tool described by Zhang et al., 2004 (Zhang R., Mayhood T., Lipari P., Wang Y., Durkin D., Syto R., Gesell J., McNemar C., and Windsor W., Analytical Biochemistry 331 (2004) 138-146)
For CC(C)[C@@H](CO)NC(=O)c1ccc(C(=O)Nc2ccc(-n3cncn3)cc2)s1 [Compound 153], the IC50 was ≥ 40 µM. O=C(NC[C@H](O)c1ccccc1)c1ccc(C(=O)Nc2ccc(-n3cncn3)cc2)s1 [Compound 154] was tested, and the IC50 was ≥ 40 µM. Cc1cnc(NC(=O)c2ccc(C(=O)Nc3ccc(-n4cncn4)cc3)s2)s1 [Compound 155] was tested, and the IC50 was ≥ 40 µM. With O=C(NCCc1ccccn1)c1ccc(C(=O)Nc2ccc(-n3cncn3)cc2)s1 [Compound 156] the IC50 was ≥ 40 µM. With COc1cccc(NC(=O)c2ccc(C(=O)Nc3ccc(-n4cncn4)cc3)s2)c1 [Compound 157] the IC50 was ≥ 40 µM. For O=C(NCc1nc2ccccc2[nH]1)c1ccc(C(=O)Nc2ccc(-n3cncn3)cc2)s1 [Compound 158], the IC50 was ≥ 40 µM. With Cn1c(NC(=O)c2ccc(C(=O)Nc3ccc(-n4cncn4)cc3)s2)nc2ccccc21 [Compound 159] the IC50 was ≥ 40 µM. With O=C(Nc1ccc(-n2cncn2)cc1)c1ccc(C(=O)Nc2ccc3c(c2)C(=O)OC3)s1 [Compound 160] the IC50 was ≥ 40 µM. For O=C(Nc1ccc(-n2cncn2)cc1)c1ccc(C(=O)Nc2ccc3ncsc3c2)s1 [Compound 161], the IC50 was ≥ 40 µM. O=C(Nc1ccc(-n2cncn2)cc1)c1ccc(C(=O)Nc2cccc(-c3cnco3)c2)s1 [Compound 162] was tested, and the IC50 was ≥ 40 µM. O=C(Nc1ccc(-n2cncn2)cc1)c1ccc(C(=O)Nc2cccc(O)c2)s1 [Compound 163] was tested, and the IC50 was ≥ 40 µM. Nc1ccc(CNC(=O)c2ccc(C(=O)Nc3ccc(-n4cncn4)cc3)s2)cn1 [Compound 164] was tested, and the IC50 was ≥ 40 µM. With O=C(Nc1ccc(-n2cncn2)cc1)c1ccc(C(=O)Nc2ccccc2Cl)s1 [Compound 165] the IC50 was ≥ 40 µM. In the case of O=C(Nc1ccc(-n2cncn2)cc1)c1ccc(C(=O)Nc2cc(F)ccc2F)s1 [Compound 166], the IC50 is reported as ≥ 40 µM. For COc1ccc(NC(=O)c2ccc(C(=O)Nc3ccc(-n4cncn4)cc3)s2)cc1O [Compound 167], the IC50 was ≥ 40 µM. In the case of COc1ccc(NC(=O)c2ccc(C(=O)Nc3ccc(-c4c(C)noc4C)cc3)s2)c(C)c1 [Compound 168], the IC50 is reported as ≥ 40 µM. With COc1ccc(NC(=O)c2ccc(C(=O)Nc3ccc4ncccc4c3)s2)c(C)c1 [Compound 169] the IC50 was ≥ 40 µM. COc1ccc(NC(=O)c2ccc(C(=O)Nc3ccc4nc(C)ccc4c3)s2)c(C)c1 [Compound 170] was tested, and the IC50 was ≥ 40 µM. COc1ccc(NC(=O)c2ccc(C(=O)Nc3ccc4c(cnn4C)c3)s2)c(C)c1 [Compound 171] was tested, and the IC50 was ≥ 40 µM. COc1ccc(NC(=O)c2ccc(C(=O)Nc3ccc4nccnc4c3)s2)c(C)c1 [Compound 172] was tested, and the IC50 was ≥ 40 µM. COc1ccc(NC(=O)c2ccc(C(=O)Nc3ccc4scnc4c3)s2)c(C)c1 [Compound 173] was tested, and the IC50 was ≥ 40 µM. With COc1ccc(NC(=O)c2ccc(C(=O)Nc3ccc4sc(SC)nc4c3)s2)c(C)c1 [Compound 174] the IC50 was ≥ 40 µM. In the case of COc1ccc(NC(=O)c2ccc(C(=O)Nc3ccc(C#N)cc3)s2)c(C)c1 [Compound 175], the IC50 is reported as ≥ 40 µM. With COc1ccc(NC(=O)c2ccc(C(=O)Nc3ccc(C(N)=O)cc3)s2)c(C)c1 [Compound 176] the IC50 was ≥ 40 µM. In the case of COc1ccc(NC(=O)c2ccc(C(=O)Nc3ccc(Cn4ccnc4)cc3)s2)c(C)c1 [Compound 177], the IC50 is reported as ≥ 40 µM. In the case of COc1ccc(NC(=O)c2ccc(C(=O)Nc3ccc(-c4nnn[nH]4)cc3)s2)c(C)c1 [Compound 178], the IC50 is reported as ≥ 40 µM. For COc1ccc(NC(=O)c2ccc(C(=O)Nc3ccc(-c4ncn(C)n4)cc3)s2)c(C)c1 [Compound 179], the IC50 was ≥ 40 µM. In the case of COc1ccc(NC(=O)c2ccc(C(=O)Nc3ccc(-n4cncn4)cc3F)s2)c(C)c1 [Compound 180], the IC50 is reported as ≥ 40 µM. In the case of COc1ccc(C(=O)Nc2ccc(C(=O)Nc3ccc(-n4cncn4)cc3)o2)cc1 [Compound 181], the IC50 is reported as ≥ 40 µM. For COc1ccc(C(=O)Nc2ccc(C(=O)N3CCC(Oc4cnccn4)CC3)o2)cc1 [Compound 182], the IC50 was ≥ 40 µM. O=C(Nc1ccc(C(=O)Nc2ccc(-n3cncn3)cc2)o1)c1ccccc1 [Compound 183] was tested, and the IC50 was ≥ 40 µM. Cc1ccccc1C(=O)Nc1ccc(C(=O)Nc2ccc(-n3cncn3)cc2)o1 [Compound 184] was tested, and the IC50 was ≥ 40 µM. O=C(Nc1ccc(C(=O)Nc2ccc(-n3cncn3)cc2)o1)c1ccncc1 [Compound 185] was tested, and the IC50 was ≥ 40 µM. In the case of COc1ccc(C(=O)Nc2ccc(C(=O)Nc3ccc(-n4cncn4)cc3)o2)c(C)c1 [Compound 186], the IC50 is reported as ≥ 40 µM. For O=C(Nc1ccc(-n2cncn2)cc1)c1ccc(NC(=O)C2CCCCC2)o1 [Compound 187], the IC50 was ≥ 40 µM. For COc1ccc(C(=O)Nc2ccc(C(=O)N3CCC(c4ccccn4)C3)s2)c(C)c1 (stereo not shown) [Compound 188], the IC50 was ≥ 40 µM. COc1ccc(C(=O)Nc2ccc(C(=O)N3CCC(c4ccncc4)C3)s2)c(C)c1 (stereo not shown) [Compound 189] was tested, and the IC50 was ≥ 40 µM. COc1ccc(C(=O)Nc2ccc(C(=O)N3CCC(c4ccccn4)C3)o2)c(C)c1 (stereo not shown) [Compound 190] was tested, and the IC50 was ≥ 40 µM. With COc1ccc(C(=O)Nc2ccc(C(=O)N3CCC(c4ccncc4)C3)o2)c(C)c1 (stereo not shown) [Compound 191] the IC50 was ≥ 40 µM. With COc1ccc(C(=O)Nc2ccc(C(=O)N3CCC(Oc4cnccn4)CC3)o2)c(C)c1 [Compound 192] the IC50 was ≥ 40 µM. For COc1ccc(C(=O)Nc2ccc(C(=O)Nc3ccc(-n4ccnc4)cc3)o2)c(C)c1 [Compound 193], the IC50 was ≥ 40 µM. O=C(Nc1ccc(C(=O)Nc2ccc(-n3cncn3)cc2)s1)c1ccncc1 [Compound 194] was tested, and the IC50 was ≥ 40 µM. Cn1nc(-c2cccs2)cc1NC(=O)c1ccc(C(=O)Nc2ccc(-n3cncn3)cc2)s1 [Compound 195] was tested, and the IC50 was ≥ 40 µM. In the case of Cn1nc(-c2ccc(Cl)cc2)cc1NC(=O)c1ccc(C(=O)Nc2ccc(-n3cncn3)cc2)s1 [Compound 196], the IC50 is reported as ≥ 40 µM. O=C(Nc1ccc(-n2cncn2)cc1)c1ccc(C(=O)Nc2cc(-c3ccco3)n[nH]2)s1 [Compound 197] was tested, and the IC50 was ≥ 40 µM. In the case of COc1ccc(NCc2ccc(C(=O)Nc3ccc(-n4cncn4)cc3)o2)c(C)c1 [Compound 198], the IC50 is reported as ≥ 40 µM. In the case of O=C(Nc1ccc(-n2cncn2)c(F)c1)c1ccc(C(=O)Nc2ccccc2Oc2ccccc2)s1 [Compound 199], the IC50 is reported as ≥ 40 µM. With O=C(Nc1ccc(-n2cncn2)c(F)c1)c1ccc(C(=O)Nc2ccccc2OCc2ccccc2)s1 [Compound 200] the IC50 was ≥ 40 µM. For CCOc1ccccc1NC(=O)c1ccc(C(=O)Nc2ccc(-n3cncn3)c(F)c2)s1 [Compound 201], the IC50 was ≥ 40 µM. O=C(Nc1ccc(-n2cncn2)c(F)c1)c1ccc(C(=O)Nc2ccccc2OCc2ccncc2)s1 [Compound 202] was tested, and the IC50 was ≥ 40 µM. With O=C(Nc1ccc(-n2cncn2)c(F)c1)c1ccc(C(=O)Nc2ccccc2OC2CCCCC2)s1 [Compound 203] the IC50 was ≥ 40 µM. For O=C(Nc1ccc(-n2cncn2)c(F)c1)c1ccc(C(=O)Nc2ccccc2COc2ccccc2)s1 [Compound 204], the IC50 was ≥ 40 µM. O=C(Nc1ccc(-n2cncn2)c(F)c1)c1ccc(C(=O)Nc2ccccc2Oc2cccnc2)s1 [Compound 205] was tested, and the IC50 was ≥ 40 µM. COc1ccccc1NC(=O)c1ccc(C(=O)Nc2ccc(-n3cncn3)c(F)c2)s1 [Compound 206] was tested, and the IC50 was ≥ 40 µM. In the case of O=C(Nc1ccc(-n2cncn2)c(F)c1)c1ccc(C(=O)Nc2ccccc2N2CCOCC2)s1 [Compound 207], the IC50 is reported as ≥ 40 µM. For O=C(Nc1ccc(-n2cncn2)c(F)c1)c1ccc(C(=O)Nc2ccccc2-n2cccn2)s1 [Compound 208], the IC50 was ≥ 40 µM. With CN1CCN(c2ccccc2NC(=O)c2ccc(C(=O)Nc3ccc(-n4cncn4)c(F)c3)s2)CC1 [Compound 209] the IC50 was ≥ 40 µM. For CN1CCC(N(C)C(=O)c2ccc(C(=O)Nc3ccc(-n4cncn4)c(F)c3)o2)CC1 [Compound 210], the IC50 was ≥ 40 µM. In the case of O=C(Nc1ccc(-n2cncn2)c(F)c1)c1ccc(C(=O)N2CCOCC2)o1 [Compound 211], the IC50 is reported as ≥ 40 µM. With CN(C)CCNC(=O)c1ccc(C(=O)Nc2ccc(-n3cncn3)c(F)c2)o1 [Compound 212] the IC50 was ≥ 40 µM. CN(C(=O)c1ccc(C(=O)Nc2ccc(-n3cncn3)c(F)c2)o1)C1CCCCC1 [Compound 213] was tested, and the IC50 was ≥ 40 µM. With CN1CCC(NC(=O)c2ccc(C(=O)Nc3ccc(-n4cncn4)c(F)c3)o2)CC1 [Compound 214] the IC50 was ≥ 40 µM. In the case of CNC(=O)c1ccc(C(=O)Nc2ccc(-n3cncn3)c(F)c2)o1 [Compound 215], the IC50 is reported as ≥ 40 µM. For CN(C)C(=O)c1ccc(C(=O)Nc2ccc(-n3cncn3)c(F)c2)o1 [Compound 216], the IC50 was ≥ 40 µM.

From patent publication US7446195B2, “High affinity thiophene-based and furan-based kinase ligands” (Schering Corporation, priority 2005, dated 2008)
